Experimental data: PubChem BioAssay AID248 (DTP/NCI, 2004)
Values joined by “and” are separate entries in the source; they are usually repeats but may differ in a detail not shown here. Equal values may be shown once. Toxic doses and inconclusive results are not listed. No stated cut-off is given here; in the data, active means T/C of 150% or more; inactive means T/C below 125%.

Test system: L1210 leukemia ip in BDF1 mice, survival T/C
Experiment: NCI In Vivo Anticancer Drug Screen. Data for tumor model L1210 Leukemia (intraperitoneal) in B6D2F1 (BDF1) mice
Conditions: endpoint: mean survival time, higher = longer survival
Outline: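 Value reflects the ratio of survival in compound-treated mice to survival in vehicle-treated controls, with both groups carrying the same transplanted tumor.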

[1] = dose: 100.0 mg/kg/injection, schedule: Q01DX001 (ip), vehicle: carboxymethylcellulose (CMC)
[2] = dose: 200.0 mg/kg/injection, schedule: Q01DX001 (ip), vehicle: carboxymethylcellulose (CMC)
[3] = dose: 50.0 mg/kg/injection, schedule: Q01DX001 (ip), vehicle: Klucel (hydroxypropylcellulose) (HPC)
[4] = dose: 100.0 mg/kg/injection, schedule: Q01DX001 (ip), vehicle: Klucel (hydroxypropylcellulose) (HPC)
[5] = dose: 200.0 mg/kg/injection, schedule: Q01DX001 (ip), vehicle: Klucel (hydroxypropylcellulose) (HPC)
[6] = dose: 400.0 mg/kg/injection, schedule: Q01DX001 (ip), vehicle: Klucel (hydroxypropylcellulose) (HPC)
[7] = dose: 100.0 mg/kg/injection, schedule: Q04DX003 (ip), vehicle: saline
[8] = dose: 200.0 mg/kg/injection, schedule: Q04DX003 (ip), vehicle: saline
[9] = dose: 400.0 mg/kg/injection, schedule: Q04DX003 (ip), vehicle: saline
[10] = dose: 100.0 mg/kg/injection, schedule: Q01DX001 (ip), vehicle: saline
[11] = dose: 200.0 mg/kg/injection, schedule: Q01DX001 (ip), vehicle: saline
[12] = dose: 400.0 mg/kg/injection, schedule: Q01DX001 (ip), vehicle: saline
[13] = dose: 100.0 mg/kg/injection, schedule: Q01DX009 (ip), vehicle: Klucel (hydroxypropylcellulose) (HPC)
[14] = dose: 100.0 mg/kg/injection, schedule: Q04DX003 (ip), vehicle: Klucel (hydroxypropylcellulose) (HPC)
[15] = dose: 200.0 mg/kg/injection, schedule: Q01DX009 (ip), vehicle: Klucel (hydroxypropylcellulose) (HPC)
[16] = dose: 200.0 mg/kg/injection, schedule: Q04DX003 (ip), vehicle: Klucel (hydroxypropylcellulose) (HPC)
[17] = dose: 400.0 mg/kg/injection, schedule: Q04DX003 (ip), vehicle: Klucel (hydroxypropylcellulose) (HPC)

Measured: T/C

CCC(=O)c1ccc(N=Nc2c(N)nc(N)[nH]c2=O)cc1
inactive: [1] 101 % of control | [2] 108 % of control | dose: 400.0 mg/kg/injection, schedule: Q01DX001 (ip), vehicle: carboxymethylcellulose (CMC) 103 % of control

COC(=O)C1C2CCc3cc(OC)ccc3C2CC(=O)C1(C)C(=O)OC (stereo unspecified)
inactive: dose: 100.0 mg/kg/injection, schedule: Q01DX009 (sc), vehicle: steriod suspending solution 98 % of control | dose: 200.0 mg/kg/injection, schedule: Q01DX009 (sc), vehicle: steriod suspending solution 98 % of control | dose: 400.0 mg/kg/injection, schedule: Q01DX009 (sc), vehicle: steriod suspending solution 107 % of control

CCP(CC)SC1OC(COC(C)=O)C(OC(C)=O)C(OC(C)=O)C1OC(C)=O (stereo unspecified)
inactive: [3] 102 % of control | [4] 101 % of control | [5] 98 % of control

Cc1ccc(S(=O)(=O)NC(Cc2ccccc2)C(=O)Nc2cccnc2)cc1 (stereo unspecified)
inactive: [4] 91 % of control | [5] 100 % of control | [6] 88 % of control

OCC1(CO)CCCCO1
inactive: [7] 96 % of control | [8] 95 % of control | [9] 101 % of control

CCN(CC)CCOC(=O)C(c1ccccc1)c1ccccc1
inactive: dose: 75.0 mg/kg/injection, schedule: Q01DX001 (ip), vehicle: saline 104 % of control | dose: 150.0 mg/kg/injection, schedule: Q01DX001 (ip), vehicle: saline 94 % of control

CN(C)CCC1(c2ccccc2)C=Cc2ccccc21 (stereo unspecified)
inactive: dose: 3.12 mg/kg/injection, schedule: Q01DX009 (ip), vehicle: saline 93 % of control | dose: 6.25 mg/kg/injection, schedule: Q01DX009 (ip), vehicle: saline 97 % of control | dose: 12.5 mg/kg/injection, schedule: Q01DX009 (ip), vehicle: saline 101 % of control | dose: 25.0 mg/kg/injection, schedule: Q01DX009 (ip), vehicle: saline 100 % of control | dose: 50.0 mg/kg/injection, schedule: Q01DX009 (ip), vehicle: saline 95 % of control

Nc1c(Cl)cc(S(=O)(=O)O)cc1Br
inactive: dose: 50.0 mg/kg/injection, schedule: Q01DX001 (ip), vehicle: saline 101 % of control | [10] 103 % of control | [11] 101 % of control | [12] 101 % of control

O=C1C(Br)=C(C2CCCCC2)C(=O)c2ccccc21
inactive: dose: 50.0 mg/kg/injection, schedule: Q01DX001 (ip), vehicle: carboxymethylcellulose (CMC) 97 % of control | [1] 116 % of control | [2] 103 % of control

O=C(c1ccccc1)C1C2C=CC(C2)C1C(=O)c1ccccc1 (stereo unspecified)
inactive: [13] 94 % of control | [14] 108 % of control | [15] 107 % of control | [16] 97 % of control | dose: 400.0 mg/kg/injection, schedule: Q01DX009 (ip), vehicle: Klucel (hydroxypropylcellulose) (HPC) 93 % of control | [17] 100 % of control

O=c1c(N=Nc2ccc(Cl)cc2)c(O)n(-c2ccccc2Cl)c(=S)n1-c1ccccc1
inactive: dose: 25.0 mg/kg/injection, schedule: Q01DX001 (ip), vehicle: Klucel (hydroxypropylcellulose) (HPC) 92 % of control | [3] 94 % of control | [4] 89 % of control

O=C(Nc1ccccc1)Nc1cccc2ccccc12
inactive: dose: 100.0 mg/kg/injection, schedule: Q04DX002 (ip), vehicle: gum acacia 102 % of control | dose: 200.0 mg/kg/injection, schedule: Q04DX002 (ip), vehicle: gum acacia 94 % of control | dose: 400.0 mg/kg/injection, schedule: Q04DX002 (ip), vehicle: gum acacia 94 % of control

NS(=O)(=O)c1ccc(NC(=O)Nc2ccccc2)cc1
inactive: [13] 92 % of control | [15] 97 % of control

CCCCCCCCCCCC(=O)[O][Pb]([CH2]CCC)([CH2]CCC)[O]C(=O)CCCCCCCCCCC
inactive: dose: 6.25 mg/kg/injection, schedule: Q04DX002 (ip), vehicle: gum acacia 95 % of control | dose: 12.5 mg/kg/injection, schedule: Q04DX002 (ip), vehicle: gum acacia 92 % of control and 98 % of control | dose: 25.0 mg/kg/injection, schedule: Q04DX002 (ip), vehicle: gum acacia 88 % of control

O=C(Nc1cccc2cnccc12)c1ccc(C(=O)Nc2cccc3cnccc23)cc1
inactive: [10] 98 % of control | [11] 104 % of control | [12] 104 % of control

CCCCCC/C=N\N=C(N)N
inactive: dose: 15.0 mg/kg/injection, schedule: Q01DX Z (ip), vehicle: saline 97 % of control | dose: 30.0 mg/kg/injection, schedule: Q01DX Z (ip), vehicle: saline 97 % of control | dose: 60.0 mg/kg/injection, schedule: Q01DX Z (ip), vehicle: saline 102 % of control | dose: 60.0 mg/kg/injection, schedule: Q01DX Z (oral), vehicle: saline 100 % of control | dose: 120.0 mg/kg/injection, schedule: Q01DX Z (ip), vehicle: saline 88 % of control | dose: 120.0 mg/kg/injection, schedule: Q01DX Z (oral), vehicle: saline 98 % of control | dose: 240.0 mg/kg/injection, schedule: Q01DX Z (oral), vehicle: saline 91 % of control | dose: 480.0 mg/kg/injection, schedule: Q01DX Z (oral), vehicle: saline 98 % of control

CC(C)=CCC1=C(Cl)C(=O)c2ccccc2C1=O
inactive: [4] 96 % of control | [5] 104 % of control | [6] 101 % of control

CCCCOC(=O)c1ccc(NC(=O)Nc2cc([N+](=O)[O-])ccc2Cl)cc1
inactive: dose: 25.0 mg/kg/injection, schedule: Q01DX009 (ip), vehicle: Klucel (hydroxypropylcellulose) (HPC) 113 % of control | dose: 50.0 mg/kg/injection, schedule: Q01DX009 (ip), vehicle: Klucel (hydroxypropylcellulose) (HPC) 100 % of control | [13] 90 % of control

COC(=O)C(C)(OC)OC
inactive: dose: 100.0 mg/kg/injection, schedule: Q01DX009 (ip), vehicle: saline 104 % of control | [14] 96 % of control | dose: 200.0 mg/kg/injection, schedule: Q01DX009 (ip), vehicle: saline 112 % of control | [16] 100 % of control | dose: 400.0 mg/kg/injection, schedule: Q01DX009 (ip), vehicle: saline 105 % of control | [17] 96 % of control

CCCCCCC(CCCCCC)(CCCCCC)B1OCCO1
inactive: dose: 100.0 mg/kg/injection, schedule: Q01DX009 (ip), vehicle: saline sonified 96 % of control | [7] 102 % of control | dose: 200.0 mg/kg/injection, schedule: Q01DX009 (ip), vehicle: saline sonified 106 % of control | [8] 102 % of control | dose: 400.0 mg/kg/injection, schedule: Q01DX009 (ip), vehicle: saline sonified 95 % of control | [9] 96 % of control

CC1(C(=O)O)OCCO1
inactive: dose: 100.0 mg/kg/injection, schedule: Q01DX009 (ip), vehicle: saline with Tween-80 94 % of control | dose: 200.0 mg/kg/injection, schedule: Q01DX009 (ip), vehicle: saline with Tween-80 90 % of control

C/C(=N/NC(=O)c1ccc(N)cc1)c1ccc(C)cc1
inactive: dose: 100.0 mg/kg/injection, schedule: Q04DX002 (ip), vehicle: Klucel (hydroxypropylcellulose) (HPC) 110 % of control | dose: 200.0 mg/kg/injection, schedule: Q04DX002 (ip), vehicle: Klucel (hydroxypropylcellulose) (HPC) 89 % of control

NCCCOC12CC3CC(CC(C3)C1)C2
inactive: dose: 10.0 mg/kg/injection, schedule: Q04DX002 (ip), vehicle: saline 106 % of control | dose: 20.0 mg/kg/injection, schedule: Q04DX002 (ip), vehicle: saline 117 % of control | dose: 40.0 mg/kg/injection, schedule: Q04DX002 (ip), vehicle: saline 102 % of control

O=[N+]([O-])c1ccc(-c2ccccc2)c([As](=O)(O)O)c1
inactive: dose: 25.0 mg/kg/injection, schedule: Q04DX002 (ip), vehicle: saline with Tween-80 106 % of control

Cc1ccc2nc(/C=C/c3ccc(N(C)C)cc3)cc(C)c2c1
inactive: dose: 25.0 mg/kg/injection, schedule: Q01DX Z (ip), vehicle: carboxymethylcellulose (CMC) 89 % of control | dose: 100.0 mg/kg/injection, schedule: Q01DX Z (ip), vehicle: carboxymethylcellulose (CMC) 96 % of control | dose: 200.0 mg/kg/injection, schedule: Q01DX Z (ip), vehicle: carboxymethylcellulose (CMC) 100 % of control
